{"source": "patent EP0863769B1", "about": "(priority 1996, dated 1998)", "key": {"A/NIB/23/89 M": {"target": "A/NIB/23/89 M", "type": "binding, Influenza Viren", "settings": "read-out: Affinität der Bindung an Virus, Kaff"}, "B/England/222/82 M": {"target": "B/England/222/82 M", "type": "binding, Influenza Viren", "settings": "read-out: Affinität der Bindung an Virus, Kaff"}, "B/NIB/48/90 M": {"target": "B/NIB/48/90 M", "type": "binding, Influenza Viren", "settings": "read-out: Affinität der Bindung an Virus, Kaff"}, "B/NIB/15/89 M": {"target": "B/NIB/15/89 M", "type": "binding, Influenza Viren", "settings": "read-out: Affinität der Bindung an Virus, Kaff"}, "A/NIB/3/90 M": {"target": "A/NIB/3/90 M", "type": "binding, Influenza Viren", "settings": "read-out: Affinität der Bindung an Virus, Kaff"}, "A/NIB/12/89 M": {"target": "A/NIB/12/89 M", "type": "binding, Influenza Viren", "settings": "read-out: Affinität der Bindung an Virus, Kaff"}, "A/NIB/50/89 M": {"target": "A/NIB/50/89 M", "type": "binding, Influenza Viren", "settings": "read-out: Affinität der Bindung an Virus, Kaff"}, "A/England/157/83 M": {"target": "A/England/157/83 M", "type": "binding, Influenza Viren", "settings": "read-out: Affinität der Bindung an Virus, Kaff"}, "A/NIB/47/89 M": {"target": "A/NIB/47/89 M", "type": "binding, Influenza Viren", "settings": "read-out: Affinität der Bindung an Virus, Kaff"}, "[1]": {"tested_on": "menschlicher Influenza Viren der Typen A und B", "type": "binding"}, "A/NIB/44/90 M": {"target": "A/NIB/44/90 M", "type": "binding, Influenza Viren", "settings": "read-out: Affinität der Bindung an Virus, Kaff"}}}
{"substance": "Poly-N-(2-Hydroxyethyl)-acrylamid mit 20% mol. 6SLN [6SLN-PAA]", "values": [{"measurement": "Kd", "setting": "A/NIB/23/89 M", "result": 20, "unit": "nM"}, {"measurement": "Kd", "setting": "B/England/222/82 M", "result": 40, "unit": "nM"}, {"measurement": "Kd", "setting": "B/NIB/48/90 M", "result": 40, "unit": "nM"}, {"measurement": "Kd", "setting": "B/NIB/15/89 M", "result": 20, "unit": "nM"}, {"measurement": "Kd", "setting": "A/NIB/3/90 M", "result": 10, "unit": "nM"}, {"measurement": "Kd", "setting": "A/NIB/12/89 M", "result": 100, "unit": "nM"}, {"measurement": "Kd", "setting": "A/NIB/50/89 M", "result": 20, "unit": "nM"}, {"measurement": "Kd", "setting": "A/England/157/83 M", "result": 30, "unit": "nM"}, {"measurement": "Kd", "setting": "A/NIB/47/89 M", "result": 10, "unit": "nM"}, {"measurement": "Inhibition der viralen Zelladhäsion", "setting": "[1]", "result": "hervoragender Inhibitor aller authentischer Influenza Stämme"}, {"measurement": "Kd", "setting": "A/NIB/44/90 M", "result": 10, "unit": "nM"}]}
